Data: US9469611B2, “Use of dihydroimidazolones for the treatment of dogs” (BOEHRINGER INGELHEIM VETMEDICA GMBH, priority 2002, dated 2016)
“And” between values parts separate entries of the source, which are not always exact repeats. Identical values can stand only once. Marks after values point to notes of the source that are not given here.

Experiments:
[1] = test system: dogs with chronic idiopathic epilepsy; experiment: add-on therapy in dogs with chronic idiopathic epilepsy not responding to phenobarbital or primidone; format: in vivo, dog
[2] = cited from earlier work
[3] = serum concentrations of phenobarbital and bromide
[4] = test system: dogs with newly diagnosed idiopathic epilepsy; experiment: monotherapy in dogs with newly diagnosed idiopathic epilepsy (AWD 131-138 pilot study; retrospective phenobarbital, primidone); conditions: for duration of the ictus before treatment, median / duration of the ictus before treatment, time range / duration of the ictus during treatment, median / duration of the ictus during treatment, time range: grand mal seizures; for duration of the ictus before treatment, median / duration of the ictus before treatment, time range / Seizure frequency before treatment, all dogs / Seizure frequency before treatment, without nonresponders: baseline before monotherapy; for % reduction of seizures in responders: mean ± SEM; for Seizure frequency before treatment, all dogs / Seizure frequency before treatment, without nonresponders / Seizure frequency during treatment, all dogs / Seizure frequency during treatment, without nonresponders: median group value; for Seizure frequency during treatment, all dogs / Seizure frequency during treatment, without nonresponders: asterisk = P<0.05 vs before; for shortening of the postictal phase, mean: in the dogs with shortening; for dogs with unchanged or increased seizure severity: owners record
[5] = add-on to phenobarbital or primidone
[6] = grand mal seizures, add-on to phenobarbital or primidone
[7] = grand mal seizures, on phenobarbital or primidone before add-on
[8] = median, on phenobarbital/primidone before add-on
[9] = potassium bromide 40-60 mg/kg p.o. daily, add-on
[10] = 44 newly diagnosed dogs, phenobarbital 4 to 13 mg/kg p.o. daily
[11] = eight chronic epilepsy dogs (potassium bromide add-on group), phenobarbital 6 to 17 mg/kg p.o. daily
[12] = eleven chronic epilepsy dogs (later AWD add-on), phenobarbital 6 to 23 mg/kg p.o. daily

With [Br-].[K+] [Potassium bromide, potassium bromide, reference compound] the “comparison of antiepileptic efficacy between the two add on treatment schedules” value ([1]; Fisher's exact test) was “did not indicate any significant difference”, the “dogs in which clusters did not occur anymore” value ([1]; add-on) was 6 and the “dogs with worsening of seizure severity reported by owner” value ([1]; add-on) was “one”. The “number of dogs with decreased duration of the ictus” value ([1]; add-on) was 3, the “number of dogs with shortened postictal phase” value ([1]; add-on) was “two” and the “postictal phase during treatment, mean” value ([1]; add-on) was 5.5 h. For the same molecule, the “dogs in which a seizure reduction was observed” value [1, 5] was 7 of 12, the “dogs that died or were euthanized in status epilepticus” value (shortened to “dogs that died or were euthanized”) [1, 5] was 6 and the “Number of seizure-free dogs” value ([1]; add-on to phenobarbital/primidone) was 0/12. The “shortening of the postictal phase” value ([1]; add-on, in the dogs with shortening) was 50% and 75%, the “duration of the ictus during treatment, median” value [1, 6] was 2.0 min and the “duration of the ictus during treatment, time range” value [1, 6] was 1 to 10 min. For the same molecule, the “duration of the ictus before treatment, median” value [1, 7] was 3.0 min, the “duration of the ictus before treatment, time range” value [1, 7] was 1 to 13 min and the “% reduction of seizures in responders” value ([1]; mean ± SEM, add-on to phenobarbital/primidone) was 59.7 ± 5.9%. The “Seizure frequency during treatment, all dogs” value ([1]; median, add-on to phenobarbital/primidone) was 1.9 seizures/month, the “Seizure frequency during treatment, without nonresponders” value ([1]; median, add-on to phenobarbital/primidone, asterisk = P<0.05) was 0.8* seizures/month and the “Seizure frequency before treatment, all dogs” value [1, 8] was 3.0 seizures/month. The “Seizure frequency before treatment, without nonresponders” value [1, 8] was 3.0 seizures/month, the “bromide concentration, therapeutic range” value ([2]; established by PODELL and FENNER 1993) was 1.0 to 2.0 mg/mL and the “Bromide concentration, mean” value [3, 9] was 1.0 mg/mL. For the same molecule, the “Bromide concentration, median” value [3, 9] was 0.9 mg/mL.

In the case of CCC1(c2ccccc2)C(=O)NCNC1=O [Primidone, primidone], the “comparison of antiepileptic efficacy between monotherapy treatment groups” value ([4]; ANOVA) is reported as “did not indicate any significant differences”, the “duration of the ictus before treatment, median” value [4] is reported as 1.5 min and the “duration of the ictus before treatment, time range” value [4] is reported as 0.5 to 10 min. The “duration of the ictus during treatment, median” value ([4]; monotherapy) was 1.0 min, the “duration of the ictus during treatment, time range” value ([4]; monotherapy) was 0.5 to 10 min and the “% reduction of seizures in responders” value ([4]; monotherapy) was 75.1 ± 5.1%. For the same molecule, the “Seizure frequency before treatment, all dogs” value [4] was 1.75 seizures/month, the “Seizure frequency before treatment, without nonresponders” value [4] was 2.0 seizures/month and the “Seizure frequency during treatment, all dogs” value ([4]; monotherapy) was 0.39 seizures/month. The “Seizure frequency during treatment, without nonresponders” value ([4]; monotherapy) was 0.29* seizures/month, the “dogs in which a seizure reduction was observed” value ([4]; monotherapy) was 19 of 26 and the “dogs that died or were euthanized” value ([4]; monotherapy) was 10. For the same molecule, the “dogs with focal seizures instead of grand mal seizures during treatment” value ([4]; monotherapy) was 2, the “dogs with reduced seizure number per cluster” value ([4]; monotherapy) was 5 out of ten and the “number of dogs with decreased duration of the ictus” value ([4]; monotherapy) was 2. The “number of dogs with shortened postictal phase” value ([4]; monotherapy) was 5, the “owners reporting subjectively a decrease of seizure severity” value ([4]; monotherapy) was “ten of 22” and the “postictal phase during treatment, mean” value ([4]; monotherapy) was 4.5 h. The “reduction of seizure number per cluster, mean” value ([4]; monotherapy) was 37.5%, the “decrease of the duration of the ictus” value ([4]; monotherapy, in the dogs with a decrease) was 30% and the “shortening of the postictal phase, mean” value ([4]; monotherapy) was 40%. The “dogs with unchanged or increased seizure severity” value ([4]; monotherapy) was 2.

In the case of CCC1(c2ccccc2)C(=O)NC(=O)NC1=O [Phenobarbital, phenobarbital], the “phenobarbital serum concentration, reference values” ([2]; established by FARNBACH 1984) is listed as 45 µg/mL, the “serum concentration of phenobarbital, mean” value [3, 10] is listed as 18400 ng/mL and the “serum concentration of phenobarbital, median” value [3, 10] is listed as 17200 ng/mL. The “serum concentration, mean” value [3, 11] was 27200 ng/mL, the “serum concentration, median” value [3, 11] was 24600 ng/mL and the “serum concentration of phenobarbital, mean” value [3, 12] was 32000 ng/mL. For the same molecule, the “serum concentration of phenobarbital, median” value [3, 12] was 26500 ng/mL, the “duration of the ictus before treatment, median” value [4] was 4.0 min and the “duration of the ictus before treatment, time range” value [4] was 0.5 to 10 min. For the same molecule, the “duration of the ictus during treatment, median” value ([4]; monotherapy) was 5.0 min, the “duration of the ictus during treatment, time range” value ([4]; monotherapy) was 0.5 to 10 min and the “% reduction of seizures in responders” value ([4]; monotherapy) was 72.4 ± 4.6%. The “Seizure frequency before treatment, all dogs” value [4] was 1.6 seizures/month, the “Seizure frequency before treatment, without nonresponders” value [4] was 1.68 seizures/month and the “Seizure frequency during treatment, all dogs” value ([4]; monotherapy) was 0.59* seizures/month. For the same molecule, the “Seizure frequency during treatment, without nonresponders” value ([4]; monotherapy) was 0.42* seizures/month, the “dogs that died or were euthanized” value ([4]; monotherapy) was 10 and the “dogs with focal seizures instead of grand mal seizures during treatment” value ([4]; monotherapy) was 6. The “number of dogs with decreased duration of the ictus” value ([4]; monotherapy) was 4, the “number of dogs with shortened postictal phase” value ([4]; monotherapy) was 8 and the “owners reporting subjectively a decrease of seizure severity” value ([4]; monotherapy) was 24. For the same molecule, the “postictal phase during treatment, mean” value ([4]; monotherapy) was 3 h, the “shortening of the postictal phase, mean” value ([4]; monotherapy) was 43% and the “dogs with unchanged or increased seizure severity” value ([4]; monotherapy) was 11.
